Measured values taken from patent US11840551B2, “Compositions and methods of modulating the immune response by activating alpha protein kinase 1” (Shanghai Yao Yuan Biotechnology Co., Ltd., priority 2017, dated 2023).
“Also recorded” adds a separate entry of the source.

Biological target: ALPK1 (Homo sapiens, UniProt Q96QP1)
Assay: IL8 secretion in HEK293 cells (IL8 ELISA) as indicator of ALPK1 activation
Conditions: for IL8 secretion in HEK293 cells: serial dilutions, 4 hours
Protocol: Phosphatase such as the alkaline phosphatase may be responsible for H1b-ADP hydrolysis. We pre-mixed H1b-ADP with phosphatase inhibitor sodium orthovanadate (Na3VO4) before incubation with FBS. […] We hypothesized that the accumulation of hydrolysis product AMP can inhibit phosphatase activity.
A number of H1b-ADP derivative compounds were made as described herein and tested for biological activity as agonists of ALPK1 in vitro. In these experiments, serial dilutions of the compounds were added to the tissue culture media of HEK293 cells with (FIG. 27B, FIG. 28B, FIG. 29B) or without (FIG. 26, FIG. 27A, FIG. 28A, FIG. 29A) 10% FBS, as indicated in the figures. After 4 hours, the cell supernatant was collected and analyzed for IL8 concentration using IL8 ELISA (BD) as an indicator of ALPK1 activation.

Sequence of ALPK1 (Q96QP1 whole entry): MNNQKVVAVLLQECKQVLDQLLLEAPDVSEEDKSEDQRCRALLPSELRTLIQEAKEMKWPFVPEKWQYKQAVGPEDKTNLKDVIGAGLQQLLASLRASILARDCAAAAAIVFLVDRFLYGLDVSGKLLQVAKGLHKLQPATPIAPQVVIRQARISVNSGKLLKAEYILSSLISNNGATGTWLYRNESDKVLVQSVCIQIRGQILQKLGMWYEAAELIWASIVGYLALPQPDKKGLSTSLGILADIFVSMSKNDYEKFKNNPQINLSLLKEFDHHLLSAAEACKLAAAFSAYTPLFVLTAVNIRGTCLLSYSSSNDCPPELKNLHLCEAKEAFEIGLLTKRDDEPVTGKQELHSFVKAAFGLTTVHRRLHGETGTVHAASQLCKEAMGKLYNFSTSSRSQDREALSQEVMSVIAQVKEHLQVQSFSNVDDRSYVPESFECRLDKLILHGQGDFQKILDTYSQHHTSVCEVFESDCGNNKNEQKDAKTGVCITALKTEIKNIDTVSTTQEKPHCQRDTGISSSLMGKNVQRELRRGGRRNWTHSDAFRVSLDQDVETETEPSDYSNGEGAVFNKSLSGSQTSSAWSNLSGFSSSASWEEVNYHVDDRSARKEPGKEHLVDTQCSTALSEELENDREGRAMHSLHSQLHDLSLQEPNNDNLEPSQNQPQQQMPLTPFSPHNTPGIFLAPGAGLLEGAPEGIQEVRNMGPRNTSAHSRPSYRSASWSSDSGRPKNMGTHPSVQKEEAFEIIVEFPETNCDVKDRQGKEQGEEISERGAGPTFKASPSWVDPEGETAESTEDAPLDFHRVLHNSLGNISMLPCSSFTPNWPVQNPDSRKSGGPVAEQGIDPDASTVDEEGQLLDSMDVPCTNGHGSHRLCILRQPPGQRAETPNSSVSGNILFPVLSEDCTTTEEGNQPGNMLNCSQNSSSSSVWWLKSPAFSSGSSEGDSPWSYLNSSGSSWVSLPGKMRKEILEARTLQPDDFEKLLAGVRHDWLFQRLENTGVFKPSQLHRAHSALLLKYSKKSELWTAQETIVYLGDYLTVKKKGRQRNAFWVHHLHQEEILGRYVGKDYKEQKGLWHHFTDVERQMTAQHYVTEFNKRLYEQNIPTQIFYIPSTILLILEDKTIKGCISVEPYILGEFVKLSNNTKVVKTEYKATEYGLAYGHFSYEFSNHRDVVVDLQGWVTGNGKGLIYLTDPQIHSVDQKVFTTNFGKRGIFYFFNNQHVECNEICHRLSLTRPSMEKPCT

SMILES | IL8 secretion in HEK293 cells (with 10% FBS) | IL8 secretion in HEK293 cells (without FBS) | resistance to FBS (serum) degradation (comparison of IL8 secretion without FBS and with 10% FBS (FIG. 27A, FIG. 27B))
CC(=O)OC[C@@H](OC(C)=O)C1O[C@@H](OP(=O)(O)OP(=O)(O)OCC2(F)O[C@@H](n3cnc4c(N)ncnc43)C3OC(C)(C)OC32)C(OC(C)=O)C(OC(C)=O)[C@@H]1OC(C)=O (single isomer, unassigned) [Compound 19] | activate IL8 secretion | activate IL8 secretion | –
COC1C(OC)[C@@H](COP(=O)(O)OP(=O)(O)O[C@@H]2OC([C@H](O)CO)[C@@H](O)C(O)C2O)O[C@H]1n1cnc2c(N)ncnc21 (stereo in doubt) [Compound 14, Adenosine-2′3′-dimethoxy-5′-(D-glycero-B-D-mannoheptopyranosyl) diphosphate] | increased IL8 secretion | increased IL8 secretion | –
Nc1ncnc2c1ncn2[C@@H]1O[C@H](COP(=O)(O)OP(=O)(O)O[C@@H]2OC([C@@H](O)CO)[C@@H](O)C(O)C2O)C(O)C1O (stereo in doubt) [Compound 22, Adenosine-5′-(L-glycero-β-D-mannoheptopyranosyl) diphosphate] | increased IL8 secretion | increased IL8 secretion | –
CC(=O)OC[C@H](F)[C@H]1O[C@@H](OP(=O)(O)OP(=O)(O)OC[C@H]2O[C@@H](n3cnc4c(N)ncnc43)[C@H](O)[C@@H]2O)[C@@H](OC(C)=O)[C@@H](OC(C)=O)[C@@H]1OC(C)=O [Compound 3, (2S,3S,4S,5S,6S)-2-((S)-2-acetoxy-1-fluoroethyl)-6-(((((((2R,3S,4R,5R)-5-(6-amino-9H-purin-9-yl)-3,4-dihydroxytetrahydrofuran-2-yl)methoxy)(hydroxy)phosphoryl)oxy)(hydroxy)phosphoryl)oxy)tetrahydro-2H-pyran-3,4,5-triyl triacetate] | activate IL8 secretion | activate IL8 secretion | –
CC(=O)OC[C@H]1O[C@@H](OP(=O)(O)OP(=O)(O)OC[C@H]2O[C@@H](n3cnc4c(N)ncnc43)[C@H](O)[C@@H]2O)[C@@H](OC(C)=O)[C@@H](OC(C)=O)[C@@H]1OC(C)=O [Compound 5, (2R,3R,4S,5S,6S)-2-(acetoxymethyl)-6-(((((((2R,3S,4R,5R)-5-(6-amino-9H-purin-9-yl)-3,4-dihydroxytetrahydrofuran-2-yl)methoxy)(hydroxy)phosphoryl)oxy)(hydroxy)phosphoryl)oxy)tetrahydro-2H-pyran-3,4,5-triyl triacetate] | increased IL8 secretion | increased IL8 secretion | –
CO[C@@H]1[C@H](OC)[C@@H](COP(=O)(O)OP(=O)(O)O[C@@H]2O[C@H]([C@@H](COC(C)=O)OC(C)=O)[C@@H](OC(C)=O)[C@H](OC(C)=O)[C@@H]2OC(C)=O)O[C@H]1n1cnc2c(N)ncnc21 [Compound 13, (2S,3S,4S,5R,6R)-2-(((((((2R,3R,4R,5R)-5-(6-amino-9H-purin-9-yl)-3,4-dimethoxytetrahydrofuran-2-yl)methoxy)(hydroxy)phosphoryl)oxy)(hydroxy)phosphoryl)oxy)-6-((R)-1,2-diacetoxyethyl)tetrahydro-2H-pyran-3,4,5-triyl triacetate] | increased IL8 secretion | increased IL8 secretion | –
CC(=O)OC[C@@H](OC(C)=O)C1O[C@@H](OP(=O)(O)OP(O)(=S)OC[C@H]2O[C@@H](n3cnc4c(N)ncnc43)C(O)C2O)C(OC(C)=O)C(OC(C)=O)[C@@H]1OC(C)=O (stereo partly drawn) [Compound 15, (2S,3S,4S,5R,6R)-2-(((((((2R,3S,4R,5R)-5-(6-amino-9H-purin-9-yl)-3,4-dihydroxytetrahydrofuran-2-yl)methoxy)(hydroxy)phosphorothioyl)oxy)(hydroxy)phosphoryl)oxy)-6-((R)-1,2-diacetoxyethyl)tetrahydro-2H-pyran-3,4,5-triyl triacetate] | activate IL8 secretion | activate IL8 secretion | unexpected resistance to serum degradation; also recorded: resistant to FBS degradation
Nc1ncnc2c1ncn2[C@@H]1O[C@H](COP(O)(=S)OP(=O)(O)O[C@@H]2OC([C@H](O)CO)[C@@H](O)[C@H](O)C2O)[C@H](O)C1O (some centres unmarked) [Compound 16] | increased IL8 secretion | increased IL8 secretion | –
CC(=O)OC[C@@H](OC(C)=O)[C@H]1O[C@@H](OP(=O)(O)OP(=O)(O)OC[C@H]2O[C@@H](n3cnc4c(N)ncnc43)[C@H](O)[C@H]2F)[C@@H](OC(C)=O)[C@@H](OC(C)=O)[C@@H]1OC(C)=O [Compound 17, (2S,3S,4S,5R,6R)-2-(((((((2R,3R,4S,5R)-5-(6-amino-9H-purin-9-yl)-3-fluoro-4-hydroxytetrahydrofuran-2-yl)methoxy)(hydroxy)phosphoryl)oxy)(hydroxy)phosphoryl)oxy)-6-((R)-1,2-diacetoxyethyl)tetrahydro-2H-pyran-3,4,5-triyl triacetate] | increased IL8 secretion | increased IL8 secretion | –
CC(=O)OC[C@@H](OC(C)=O)[C@H]1O[C@@H](OP(=O)(O)OP(=O)(O)OC[C@@]2(F)O[C@@H](n3cnc4c(N)ncnc43)[C@H](O)[C@@H]2O)[C@@H](OC(C)=O)[C@@H](OC(C)=O)[C@@H]1OC(C)=O [Compound 20, (2S,3S,4S,5R,6R)-2-(((((((2S,3S,4R,5R)-5-(6-amino-9H-purin-9-yl)-2-fluoro-3,4-dihydroxytetrahydrofuran-2-yl)methoxy)(hydroxy)phosphoryl)oxy)(hydroxy)phosphoryl)oxy)-6-((R)-1,2-diacetoxyethyl)tetrahydro-2H-pyran-3,4,5-triyl triacetate] | activate IL8 secretion | activate IL8 secretion | –
CC(=O)OC[C@H](OC(C)=O)[C@H]1O[C@@H](OP(=O)(O)OP(=O)(O)OC[C@H]2O[C@@H](n3cnc4c(N)ncnc43)[C@H](O)[C@@H]2O)[C@@H](OC(C)=O)[C@@H](OC(C)=O)[C@@H]1OC(C)=O [Compound 21, (2S,3S,4S,5R,6R)-2-(((((((2R,3S,4R,5R)-5-(6-amino-9H-purin-9-yl)-3,4-dihydroxytetrahydrofuran-2-yl)methoxy)(hydroxy)phosphoryl)oxy)(hydroxy)phosphoryl)oxy)-6-((S)-1,2-diacetoxyethyl)tetrahydro-2H-pyran-3,4,5-triyl triacetate] | increased IL8 secretion | increased IL8 secretion | –
